Earlier results as cited in US6562757B1, “Plant-protection treatment of plants and compositions which can be used for this purpose” (Cerexagri S.A., priority 1999, dated 2003).

Settings: pH 7

Structure (SMILES)	amount of soluble aqueous copper (Cu2+(aq)) released [mg/L]
[Cu+2].[OH-].[OH-] [copper hydroxide]	1 to 10
[Cl-].[Cu+2].[Cu+2].[OH-].[OH-].[OH-] [copper oxychloride]	1 to 10
